# Source: US20240131044A1, “METHOD FOR TREATING CANCER” (M.T.3, Inc., priority 2022, published 2024)
# Assays:
# [1] = test system: Melanoma developing cells (CML6M); test: Colony formation, survival fraction of canine melanoma cells; assay type: cell-based
# Protocol: (§1) An anti-cancer agent and a pharmaceutical composition were administered to test cells and then the cells were cultured. Then, after colonies were formed, the number of colonies was counted. Here, samples in which the concentration of the anti-cancer agent to be administered was varied were prepared, and in each sample, the survival fraction of the cells compared with the case where cells were cultured without administration of the pharmaceutical composition was measured. Regarding the type of anti-cancer agent to be administered, a predetermined anti-cancer agent was selected depending on the type of administration target cells. Note that cells that were cultured without administration of the pharmaceutical composition and the anti-cancer agent were used as a control. Hereinafter, these steps will be described.
# (§2) Here, CHO cells, V79 cells, and canine-derived cancer cells were prepared as the test cells. The CHO cells are ovarian cells derived from Chinese hamsters, and the V79 cells are fibroblasts derived from the lungs of Chinese hamsters. Melanoma developing cells (CML6M) and soft tissue sarcoma developing cells (STSA-1) were used as the cancer cells.
# (§3) The cancer cells were prepared by being cultured using an αMEM culture medium supplemented with 10% serum and an antibiotic. The cancer cells were prepared such that, when the concentration of the cells in a cell suspension obtained by subjecting the cultured cells to PBS washing and trypsin treatment, the concentration was within a predetermined concentration range. Here, the predetermined concentration ranges were 300 cells/well, 100 to 150 cells/well, and 500 to 1000 cells/well for the CHO/V79 cells, the melanoma cells, and the soft tissue sarcoma cells, respectively.
# (§4) Next, the cancer cells were cultured in culture environments to which the anti-cancer agent was added at various concentrations, and were then allowed to form colonies. The culture periods for colony formation were a week, 10 days, and 14 days for CHO and V79, melanoma, and soft tissue sarcoma, respectively. After colonies were formed, washing using a physiological saline solution, fixation using 100% ethanol, and staining using 0.1% crystal violet were performed, and then the number of colonies per well was counted under a microscope. Note that, here, the colony was defined as containing 50 or more cells. Moreover, mitomycin C, doxorubicin, bleomycin, camptothecin, etoposide, taxol, methyl methanesulfonate, and cisplatin were used as the anti-cancer agent.
# (§5) A graph with the horizontal axis representing the concentration of the anti-cancer agent and the vertical axis representing the survival fraction was created by plotting the survival fraction measurement results relative to the SQAP administration amounts, and the effect of the addition of SQAP on the survival fraction was examined. Hereinafter, the results from each anti-cancer agent will be shown in a table and described.
# Canine-derived melanoma cells and soft tissue sarcoma cells were used as the cells, and doxorubicin was used as the anti-cancer agent. […] Also, the concentration of the doxorubicin administered to the soft tissue sarcoma cells was set to 0 nM, 5 nM, 10 nM, and 15 nM. […] In Table 2, survival fractions in the case where SQAP was not administered are shown with a solid line, survival fractions in the case where SQAP was administered at a concentration of 10 μM are shown with a broken line, survival fractions in the case where SQAP was administered at a concentration of 20 μM are shown with a 1-dot chain line, and survival fractions in the case where SQAP was administered at a concentration of 30 μM are shown with a 2-dot chain line.
# (§6) In the above examples, the anti-cancer agent and the pharmaceutical composition were administered to the test cells and then the cells were cultured. […]
# [2] = test system: soft tissue sarcoma developing cells (STSA-1); test: Colony formation, survival fraction of canine soft tissue sarcoma cells; assay type: cell-based
# Protocol: as §1, §2, §3, §4, §5
# Canine-derived melanoma cells and soft tissue sarcoma cells were used as the cells, and doxorubicin was used as the anti-cancer agent. The amount of the doxorubicin administered to the melanoma cell was set to 0 nM, 5 nM, 10 nM, 15 nM, 20 nM, and 25 nM. […] In Table 2, survival fractions in the case where SQAP was not administered are shown with a solid line, survival fractions in the case where SQAP was administered at a concentration of 10 μM are shown with a broken line, survival fractions in the case where SQAP was administered at a concentration of 20 μM are shown with a 1-dot chain line, and survival fractions in the case where SQAP was administered at a concentration of 30 μM are shown with a 2-dot chain line.
# as §6
# V79 cells = test: Colony formation, survival fraction of V79 cells; assay type: cell-based, Chinese hamsters
# Protocol: as §1, §2, §3
# as §4, with “Moreover, mitomycin C, doxorubicin, bleomycin, camptothecin, etoposide, taxol, methyl methanesulfonate, and cisplatin were used as the anti-cancer agent.” left out
# as §5, with “described. […]” for “described.”
# V79 cells were used as the cells, and cisplatin was used as the anti-cancer agent. The cisplatin was administered at concentrations of 0 μg/mL, 0.1 μg/mL, 0.2 μg/mL, 0.3 μg/mL, 0.4 μg/mL, and 0.5 μg/mL.
# V79 cells were used as the cells, and camptothecin was used as the anti-cancer agent. The amount of the camptothecin was set to 0 nM, 5 nM, 10 nM, 15 nM, and 20 nM.
# V79 cells were used as the cells, and mitomycin C was used as the anti-cancer agent. The amount of MMC was set to 0 nM, 100 nM, 200 nM, 300 nM, 400 nM, and 500 nM. […]
# V79 cells were used as the cells, and taxol was used as the anti-cancer agent. The amount of the taxol was set to 0 nM, 10 nM, 20 nM, and 30 nM.
# V79 cells were used as the cells, and MMS was used as the anti-cancer agent. The amount of the MMS was set to 0 μM, 10 μM, 20 μM, 30 μM, and 40 μM.
# as §6
smiles,measurement,setting,value
"CCCCCCCCCCCCCCCCCC(=O)OCCCO[C@H]1O[C@H](CS(=O)(=O)O)[C@@H](O)[C@H](O)[C@H]1O [SQAP, sulfoquinovosylacylpropanediol]",survival fraction,"[1]; melanoma cells, doxorubicin 15 nM + SQAP 10 μM",about 10%
same,survival fraction,"[1]; melanoma cells, doxorubicin 15 nM + SQAP 20 μM",about 3%
same,survival fraction,"[1]; melanoma cells, doxorubicin 15 nM + SQAP 30 μM",about 0.4%
same,survival fraction,"[1]; melanoma developing cells, SQAP 10 μM alone",about 90%
same,survival fraction,"[1]; melanoma developing cells, SQAP 20 μM alone",about 85%
same,survival fraction,"[1]; melanoma developing cells, SQAP 30 μM alone",about 60%
same,survival fraction,"[1]; melanoma developing cells, doxorubicin 10 μM + SQAP 10 μM (as restated in Example 10)",about 10%
same,survival fraction,"[1]; melanoma developing cells, doxorubicin 10 μM + SQAP 20 μM (as restated in Example 10)",about 3%
same,survival fraction,"[1]; melanoma developing cells, doxorubicin 10 μM + SQAP 30 μM (as restated in Example 10)",about 0.4%
same,survival fraction,"[2]; soft tissue sarcoma cells, doxorubicin 10 nM + SQAP 10 μM",about 2%
same,survival fraction,"[2]; soft tissue sarcoma cells, doxorubicin 10 nM + SQAP 20 μM",about 2%
same,survival fraction,"[2]; soft tissue sarcoma cells, doxorubicin 10 nM + SQAP 30 μM",about 0.7%
same,survival fraction,"[2]; soft tissue sarcoma developing cells, SQAP 10 μM alone",about 90%
same,survival fraction,"[2]; soft tissue sarcoma developing cells, SQAP 20 μM alone",about 75%
same,survival fraction,"[2]; soft tissue sarcoma developing cells, SQAP 30 μM alone",about 45%
same,survival fraction,"[2]; soft tissue sarcoma developing cells, doxorubicin 10 μM + SQAP 10 μM (as restated in Example 10)",about 2%
same,survival fraction,"[2]; soft tissue sarcoma developing cells, doxorubicin 10 μM + SQAP 20 μM (as restated in Example 10)",about 2%
same,survival fraction,"[2]; soft tissue sarcoma developing cells, doxorubicin 10 μM + SQAP 30 μM (as restated in Example 10)",about 0.7%
same,survival fraction,V79 cells; MMS 40 μM + SQAP 10 μM,about 7%
same,survival fraction,V79 cells; MMS 40 μM + SQAP 20 μM,less than 1%
same,survival fraction,V79 cells; SQAP 10 μM alone,10%
same,survival fraction,V79 cells; SQAP 20 μM alone,10%
same,"survival fraction of cells after culture, SQAP and anti-cancer agent in combination compared with SQAP alone",V79 cells; any anti-cancer agent of the examples,decreased
same,survival fraction,V79 cells; bleomycin 15 nM + SQAP 10 μM,about 20%
same,survival fraction,V79 cells; bleomycin 15 nM + SQAP 20 μM,about 2%
same,survival fraction,V79 cells; camptothecin 20 nM + SQAP 10 μM,about 12%
same,survival fraction,V79 cells; camptothecin 20 nM + SQAP 20 μM,about 3%
same,survival fraction,V79 cells; cisplatin 0.3 μg/mL + SQAP 10 μM (b65 prints 1011M),about 8%
same,survival fraction,V79 cells; cisplatin 0.3 μg/mL + SQAP 20 μM (b65 prints 20 without unit),about 5%
same,survival fraction,V79 cells; etoposide 30 nM + SQAP 10 μM,about 9%
same,survival fraction,V79 cells; etoposide 30 nM + SQAP 20 μM,about 8%
same,survival fraction,V79 cells; mitomycin C 500 nM + SQAP 10 μM,about 2%
same,survival fraction,V79 cells; mitomycin C 500 nM + SQAP 20 μM,about 1.8%
same,survival fraction,V79 cells; taxol 30 nM + SQAP 10 μM,about 2%
same,survival fraction,V79 cells; taxol 30 nM + SQAP 20 μM,about 2%
